Six compounds from ChEMBL document CHEMBL5465560, “Selectivity Literature for EUbOPEN Chemogenomic Library” (2024) can be followed below.

Assay [1] deals with T1, Testis-specific serine/threonine-protein kinase 2 (Homo sapiens) (UniProt Q96PF2).
T1 sequence (whole entry): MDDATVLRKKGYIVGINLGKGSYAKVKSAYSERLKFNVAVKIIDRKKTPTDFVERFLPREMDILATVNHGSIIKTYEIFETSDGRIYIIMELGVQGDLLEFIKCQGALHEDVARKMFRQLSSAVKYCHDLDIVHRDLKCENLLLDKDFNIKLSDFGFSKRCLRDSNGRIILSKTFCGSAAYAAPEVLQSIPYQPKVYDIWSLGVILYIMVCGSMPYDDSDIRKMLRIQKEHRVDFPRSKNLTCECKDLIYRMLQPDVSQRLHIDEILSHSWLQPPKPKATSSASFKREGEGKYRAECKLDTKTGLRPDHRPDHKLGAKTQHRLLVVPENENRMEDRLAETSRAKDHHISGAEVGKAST
Kind of assay: Selectivity interaction (Kinase panel (Z-LYTE Assay)) EUB0001632a TSSK2. Conditions: at 10 µM.

Assay [2] addresses T2, Serine/threonine-protein kinase LATS1 (Homo sapiens) (UniProt O95835).
T2 sequence (whole entry): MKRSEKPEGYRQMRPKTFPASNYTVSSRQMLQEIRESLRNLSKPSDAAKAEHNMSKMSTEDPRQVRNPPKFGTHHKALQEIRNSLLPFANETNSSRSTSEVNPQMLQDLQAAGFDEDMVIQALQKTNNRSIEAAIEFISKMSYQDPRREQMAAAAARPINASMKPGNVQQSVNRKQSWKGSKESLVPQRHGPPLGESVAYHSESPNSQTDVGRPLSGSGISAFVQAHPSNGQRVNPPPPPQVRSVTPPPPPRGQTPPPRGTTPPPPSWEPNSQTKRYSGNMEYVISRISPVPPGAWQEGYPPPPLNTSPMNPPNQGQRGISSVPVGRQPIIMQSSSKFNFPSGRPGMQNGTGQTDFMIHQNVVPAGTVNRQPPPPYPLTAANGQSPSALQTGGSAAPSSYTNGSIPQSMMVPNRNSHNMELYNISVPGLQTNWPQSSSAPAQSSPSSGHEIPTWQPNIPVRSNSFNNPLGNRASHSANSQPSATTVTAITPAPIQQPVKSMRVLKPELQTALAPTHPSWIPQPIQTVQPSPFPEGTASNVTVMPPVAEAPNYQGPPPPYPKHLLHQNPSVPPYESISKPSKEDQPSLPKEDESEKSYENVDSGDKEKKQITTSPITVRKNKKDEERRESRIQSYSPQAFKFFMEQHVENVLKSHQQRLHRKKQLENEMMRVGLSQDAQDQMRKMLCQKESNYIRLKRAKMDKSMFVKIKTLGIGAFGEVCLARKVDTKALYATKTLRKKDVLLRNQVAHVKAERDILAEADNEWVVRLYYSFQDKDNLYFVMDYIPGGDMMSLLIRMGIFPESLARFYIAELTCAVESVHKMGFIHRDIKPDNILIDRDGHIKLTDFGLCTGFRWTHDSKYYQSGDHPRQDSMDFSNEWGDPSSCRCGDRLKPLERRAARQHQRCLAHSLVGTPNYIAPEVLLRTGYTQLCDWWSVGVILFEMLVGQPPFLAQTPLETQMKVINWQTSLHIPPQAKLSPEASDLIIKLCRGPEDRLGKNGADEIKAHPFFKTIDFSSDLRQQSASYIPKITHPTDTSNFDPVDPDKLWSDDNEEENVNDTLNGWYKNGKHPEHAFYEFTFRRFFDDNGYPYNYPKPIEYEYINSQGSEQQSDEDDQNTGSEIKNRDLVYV
Kind of assay: Selectivity interaction (Kinase panel (KiNativ target engagement assay in Jurkat cells)) EUB0001635a LATS1. It counts as cell-based. Conditions: at 1 µM.

Assay [3] deals with T3, Receptor-interacting serine/threonine-protein kinase 4 (Homo sapiens) (UniProt P57078).
T3 sequence (whole entry): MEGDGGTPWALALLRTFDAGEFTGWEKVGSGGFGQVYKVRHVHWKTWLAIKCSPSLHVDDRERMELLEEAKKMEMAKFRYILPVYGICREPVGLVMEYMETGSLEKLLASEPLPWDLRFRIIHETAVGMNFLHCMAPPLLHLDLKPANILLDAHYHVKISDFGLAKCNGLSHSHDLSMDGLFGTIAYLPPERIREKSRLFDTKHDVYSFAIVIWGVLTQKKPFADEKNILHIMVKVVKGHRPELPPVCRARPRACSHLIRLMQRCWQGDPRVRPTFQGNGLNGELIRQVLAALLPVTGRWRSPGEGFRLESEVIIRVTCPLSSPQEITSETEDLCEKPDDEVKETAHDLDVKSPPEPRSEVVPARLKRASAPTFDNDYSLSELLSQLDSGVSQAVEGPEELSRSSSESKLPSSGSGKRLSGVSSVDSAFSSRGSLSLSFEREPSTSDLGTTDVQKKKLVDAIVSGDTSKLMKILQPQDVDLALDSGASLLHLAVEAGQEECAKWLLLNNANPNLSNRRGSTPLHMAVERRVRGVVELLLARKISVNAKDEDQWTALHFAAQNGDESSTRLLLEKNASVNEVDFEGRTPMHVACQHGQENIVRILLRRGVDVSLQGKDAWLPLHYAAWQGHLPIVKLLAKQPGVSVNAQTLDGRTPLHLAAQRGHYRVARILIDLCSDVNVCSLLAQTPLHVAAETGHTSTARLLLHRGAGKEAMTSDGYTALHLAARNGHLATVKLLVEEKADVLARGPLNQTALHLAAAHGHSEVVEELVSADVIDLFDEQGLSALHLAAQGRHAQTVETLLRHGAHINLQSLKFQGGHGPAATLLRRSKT
The settings on record: at 10 µM.

Assay [4] deals with Phosphatidylinositol 4,5-bisphosphate 3-kinase catalytic subunit beta isoform (Homo sapiens) (UniProt P42338). Kind of assay: Selectivity interaction (ProQinase) EUB0000171b PIK3CB.
Assay [5] concerns the target Serine/threonine-protein kinase 10 (Homo sapiens) (UniProt O94804). Kind of assay: Selectivity interaction (Kinase panel (DSF assay)) EUB0001489b STK10.
Assay [6] has as its target T4, MAP kinase-activated protein kinase 5 (Homo sapiens) (UniProt Q8IW41).
T4 sequence (whole entry): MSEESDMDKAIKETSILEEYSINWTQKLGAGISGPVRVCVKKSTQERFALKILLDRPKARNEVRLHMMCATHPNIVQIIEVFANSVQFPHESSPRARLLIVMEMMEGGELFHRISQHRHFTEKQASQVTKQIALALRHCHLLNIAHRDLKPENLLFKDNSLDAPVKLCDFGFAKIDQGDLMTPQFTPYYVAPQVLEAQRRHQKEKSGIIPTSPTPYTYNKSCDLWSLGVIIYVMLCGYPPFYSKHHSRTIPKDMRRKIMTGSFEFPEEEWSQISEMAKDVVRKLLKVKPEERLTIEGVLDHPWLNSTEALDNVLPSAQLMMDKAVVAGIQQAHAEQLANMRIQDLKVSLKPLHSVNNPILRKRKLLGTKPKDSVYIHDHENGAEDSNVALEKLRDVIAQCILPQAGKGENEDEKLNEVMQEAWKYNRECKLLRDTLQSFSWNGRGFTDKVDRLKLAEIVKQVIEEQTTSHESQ
Kind of assay: Selectivity interaction (KinomeScan (DiscoverX)) EUB0000618a MAPKAPK5. Conditions: at 10 µM.

SMILES strings stand for the structures.

Phosphatidylinositol 4,5-bisphosphate 3-kinase catalytic subunit beta isoform (Homo sapiens), sequence (P42338 whole entry, looked up, canonical isoform): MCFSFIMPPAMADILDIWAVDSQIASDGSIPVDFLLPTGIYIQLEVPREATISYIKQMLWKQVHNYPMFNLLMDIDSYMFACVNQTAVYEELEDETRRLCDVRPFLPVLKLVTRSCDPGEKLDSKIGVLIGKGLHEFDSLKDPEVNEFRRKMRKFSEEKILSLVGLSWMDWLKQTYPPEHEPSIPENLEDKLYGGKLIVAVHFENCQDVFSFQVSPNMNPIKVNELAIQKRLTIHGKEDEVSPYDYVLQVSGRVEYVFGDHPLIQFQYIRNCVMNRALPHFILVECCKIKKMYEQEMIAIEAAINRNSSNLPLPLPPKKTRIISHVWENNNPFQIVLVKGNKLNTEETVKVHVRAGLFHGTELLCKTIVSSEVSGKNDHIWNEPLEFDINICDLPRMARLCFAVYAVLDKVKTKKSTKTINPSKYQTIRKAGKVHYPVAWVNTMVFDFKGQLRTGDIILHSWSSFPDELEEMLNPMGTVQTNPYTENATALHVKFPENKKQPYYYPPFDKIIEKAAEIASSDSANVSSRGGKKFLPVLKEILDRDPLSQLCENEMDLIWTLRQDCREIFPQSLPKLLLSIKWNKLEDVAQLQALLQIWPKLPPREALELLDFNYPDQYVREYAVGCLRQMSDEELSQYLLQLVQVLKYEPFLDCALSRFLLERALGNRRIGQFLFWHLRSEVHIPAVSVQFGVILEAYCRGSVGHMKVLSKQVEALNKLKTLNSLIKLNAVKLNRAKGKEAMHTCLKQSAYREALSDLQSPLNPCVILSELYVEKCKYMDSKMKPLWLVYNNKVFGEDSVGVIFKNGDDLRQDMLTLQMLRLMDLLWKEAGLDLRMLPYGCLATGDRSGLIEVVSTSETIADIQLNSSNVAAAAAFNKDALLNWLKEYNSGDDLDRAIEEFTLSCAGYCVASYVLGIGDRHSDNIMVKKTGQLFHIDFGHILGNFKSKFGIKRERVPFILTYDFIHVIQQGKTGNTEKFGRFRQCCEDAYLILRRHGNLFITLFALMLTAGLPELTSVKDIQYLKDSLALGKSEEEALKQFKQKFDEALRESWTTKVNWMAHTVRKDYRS
Serine/threonine-protein kinase 10 (Homo sapiens), sequence (O94804 whole entry, looked up): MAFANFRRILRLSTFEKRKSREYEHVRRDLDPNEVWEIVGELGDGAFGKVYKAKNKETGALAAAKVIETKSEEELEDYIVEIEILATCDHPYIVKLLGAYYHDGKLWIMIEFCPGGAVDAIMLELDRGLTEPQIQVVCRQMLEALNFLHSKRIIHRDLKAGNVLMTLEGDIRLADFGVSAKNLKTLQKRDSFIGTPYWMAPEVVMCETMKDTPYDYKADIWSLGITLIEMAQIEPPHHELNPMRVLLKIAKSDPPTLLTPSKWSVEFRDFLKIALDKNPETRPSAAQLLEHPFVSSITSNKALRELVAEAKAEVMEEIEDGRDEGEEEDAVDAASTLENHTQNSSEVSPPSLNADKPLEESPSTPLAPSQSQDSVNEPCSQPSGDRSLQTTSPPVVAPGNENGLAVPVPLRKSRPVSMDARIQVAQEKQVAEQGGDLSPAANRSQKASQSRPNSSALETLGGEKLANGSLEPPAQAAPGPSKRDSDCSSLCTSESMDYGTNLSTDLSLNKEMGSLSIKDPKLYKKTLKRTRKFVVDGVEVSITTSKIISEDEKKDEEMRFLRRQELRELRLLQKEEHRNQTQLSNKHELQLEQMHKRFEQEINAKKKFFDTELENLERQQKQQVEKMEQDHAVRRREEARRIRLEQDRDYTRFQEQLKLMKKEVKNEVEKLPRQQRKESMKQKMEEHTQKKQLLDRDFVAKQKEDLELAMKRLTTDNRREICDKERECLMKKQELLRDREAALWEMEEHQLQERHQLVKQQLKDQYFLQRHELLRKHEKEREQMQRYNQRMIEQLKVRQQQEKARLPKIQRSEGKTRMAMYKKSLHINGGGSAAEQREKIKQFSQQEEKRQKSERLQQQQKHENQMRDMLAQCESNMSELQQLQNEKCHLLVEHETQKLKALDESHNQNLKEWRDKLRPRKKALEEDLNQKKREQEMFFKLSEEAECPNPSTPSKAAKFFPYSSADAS

Consider `Cn1cc(-n2cnc3c(NCc4nc5cc(Cl)c(Cl)cc5[nH]4)nc(N4CCOCC4)nc32)cn1`, for which the % of control in assay [1] was -16.5%. `C=CC(=O)Nc1ccc(C(=O)Nc2[nH]nc3c2CN(C(=O)N[C@H](CN(C)C)c2ccccc2)C3(C)C)cc1` displayed a % of engagement in assay [2] of 7.2%. Consider `Cc1cc([C@@H](C)Nc2ccccc2C(=O)O)c2nc(N3CCOCC3)cc(=O)n2c1` [AZD-6482], for which the % of control in assay [3] was 99%. With `C=CC(=O)Nc1cccc(C(=O)Nc2ccc(Nc3cc(-c4[nH]c(SC)nc4C)ccn3)cc2)c1`, the % of control worked out at 138% in assay [4] (at 1 µM) and 166% in assay [4] (at 5 µM). Consider `CN1CCN(C(=O)c2ccc3cc2OCCOCCNc2ccn4ncc-3c4n2)CC1`, for which the dTM in assay [5] came to 2.3 K. On to `O[C@H]1CC[C@H](Nc2ncc3nc(Nc4c(F)cc(F)cc4F)n([C@H]4CCOC4)c3n2)CC1`, for which the % of control in assay [6] stood at 100%.
